Experimental data: patent US11124881B2, “Hydrophilic metal surface treatment agent” (CHEMICAL DENSHI CO., LTD., priority 2019, dated 2021)

Experiment: Water-solubility test
Format: physicochemical
Experimental: The hydrophilic metal surface treatment agent (Compound 21) (MW 608.86, 0.32 g) produced in Example 3 was added to ultrapure water (50.09 g), and the mixture was stirred after the water temperature was heated to 60° C.
With respect to even the hydrophilic metal surface treatment agent having an octadecyl group, i.e. n-C18H37, as a long chain hydrocarbon group, an aqueous solution having a concentration of 10.32 mM could be prepared.

visible undissolved residue (0.32 g in ultrapure water 50.09 g, stirred at 60° C., after 3 hours): no visible undissolved residue
concentration of aqueous solution that could be prepared (ultrapure water, 60° C., no surfactant or solubilizing agent): 10320 µM
SMILES: CCCCCCCCCCCCCCCCCCSC(=O)CCC(=O)NC(COC(COC(CO)CO)COC(CO)CO)COC(COC(CO)CO)COC(CO)CO [Compound 21]
